Legend:
[1] = Molar enthalpy of transition or fusion; conditions: DSC

CCCC[N+]1(C)CCCC1.N#C[S-] [1-butyl-1-methylpyrrolidinium thiocyanate]
298.15 K, 101.33 kPa, Liquid
Conditions | mass density [kg/m3] | viscosity [mPa·s]
Cone and plate viscometry | – | 109.46
Vibrating tube method | 1024.77 | –

Conditions | Normal melting temperature [°C] | Triple point temperature [K]
Crystal 1, DTA | 22.2 | –
Crystal 2, DTA | – | 245.3

[1]
Conditions | Molar enthalpy of transition or fusion [kcal/mol]
Crystal 1 | 0.491
Crystal 2 | 2.07

Reference: the NIST ThermoML archive (doi:10.1016/j.fluid.2011.06.012)
